Drawing on patent US4607046A, “4-(1-imidazolylmethyl)cinnamic acid hydrochloride monohydrate and pharmaceutical compositions” (Kissei Pharmaceutical Co., Ltd., priority 1981, dated 1986), this text covers LD50 and stability for one compound.

Each structure is given as a SMILES string. Counter-ions that a name gives are not always drawn.

A short description of data set [1]: Acute toxicity, oral administration to a rat (LD50). The note with it: in vivo. The protocol: The LD50 value of this compound is in oral administration to a rat is 6000 mg/kg or more.
Data set [2] is described as follows: Stability under high or low humidity condition. In kind it is physicochemical. The note with it: below about 50° C.

What is called LD50 is the dose at which mortality reaches 50%. High values mean a less toxic substance, low ones a more toxic substance. The compound `O=C(O)C=Cc1ccc(Cn2ccnc2)cc1` [4-(1-imidazolylmethyl)cinnamic acid hydrochloride monohydrate] returned an LD50 in data set [1] of at least 6000 mg/kg. The stability entry in data set [2] is “stable”.
